Key:
Cavia porcellus [1] = assay: The compound was evaluated for the inhibition of bronchoconstriction in guinea pig at intravenous dose of 0.2 mg/Kg; type: functional; details: Lung
Cavia porcellus [2] = assay: The compound was evaluated for the inhibition of bronchoconstriction in guinea pig at intraduodenal dose of 0.5 mg/Kg; type: functional; details: Lung
Substance-K receptor [3] = target: T1, Substance-K receptor (Rattus norvegicus, UniProt P16610); assay: Inhibition of [125I]NKA binding to neurokinin NK2 receptor from rat duodenum membranes; type: cell membranes, Membrane
T1 sequence (P16610 whole entry): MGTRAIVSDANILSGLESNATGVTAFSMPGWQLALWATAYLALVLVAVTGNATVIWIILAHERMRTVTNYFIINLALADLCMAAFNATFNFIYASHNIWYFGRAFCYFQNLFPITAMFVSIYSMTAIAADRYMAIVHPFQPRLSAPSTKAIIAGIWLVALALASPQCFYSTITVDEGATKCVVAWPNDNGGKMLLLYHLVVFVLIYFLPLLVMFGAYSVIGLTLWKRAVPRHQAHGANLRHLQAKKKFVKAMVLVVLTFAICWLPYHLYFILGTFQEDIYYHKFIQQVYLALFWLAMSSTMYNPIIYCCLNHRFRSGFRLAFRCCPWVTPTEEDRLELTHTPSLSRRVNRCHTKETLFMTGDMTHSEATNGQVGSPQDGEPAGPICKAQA

Oryctolagus cuniculus = species: Oryctolagus cuniculus; assay: The compound was evaluated for the inhibition of [Nle10]-NKA(4-10)-induced contraction of the rabbit pulmonary artery; type: functional; details: read-out: pA2 (converted)
Cavia porcellus [4] = assay: The compound was evaluated for its effect on bronchoconstriction induced by histamine(10 ug/kg, i.v.) in the guinea pig 60 min after administration; type: functional
Cavia porcellus [5] = assay: The compound was evaluated for its effect on bronchoconstriction induced by acetylcholine(60 ug/kg, i.v.) in the guinea pig 60 min after administration; type: functional
Cavia porcellus [6] = assay: The compound was evaluated for its effect on bronchoconstriction induced by acetylcholine(60 ug/kg, i.v.) in the guinea pig 15 min after administration; type: functional
Cavia porcellus [7] = assay: Tested in vivo to antagonize the NKA-induced bronchoconstriction in guinea pig by intraduodenal route; type: functional; details: read-out: ID50 (the source's name)
Substance-K receptor [8] = target: T2, Substance-K receptor (Mesocricetus auratus, UniProt P51144); assay: The compound was evaluated for the inhibition of [125I]NKA binding to neurokinin NK2 receptor from hamster urinary bladder membranes
T2 sequence (P51144 whole entry): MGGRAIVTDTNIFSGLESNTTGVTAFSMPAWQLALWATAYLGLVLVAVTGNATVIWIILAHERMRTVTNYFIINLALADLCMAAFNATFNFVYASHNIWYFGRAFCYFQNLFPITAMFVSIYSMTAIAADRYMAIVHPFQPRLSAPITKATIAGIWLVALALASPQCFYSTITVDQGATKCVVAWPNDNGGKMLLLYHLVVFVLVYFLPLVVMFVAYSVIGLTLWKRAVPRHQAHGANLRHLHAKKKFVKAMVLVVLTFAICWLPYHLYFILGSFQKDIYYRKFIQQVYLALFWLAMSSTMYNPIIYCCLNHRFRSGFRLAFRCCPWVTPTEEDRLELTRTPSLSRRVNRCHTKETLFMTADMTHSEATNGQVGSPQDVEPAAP

Cavia porcellus [9] = assay: The compound was evaluated for its effect on bronchoconstriction induced by serotonin(10 ug/kg, i.v.) in the guinea pig 60 min after administration; type: functional
Cavia porcellus [10] = assay: The compound was evaluated for its effect on bronchoconstriction induced by [Sar9,Met(O2)11]-SP(5 ug/kg, i.v.) in the guinea pig 60 min after administration; type: functional
Cavia porcellus [11] = assay: Tested in vivo to antagonize the NKA-induced bronchoconstriction in guinea pig intravenously; type: functional; details: iv, read-out: ID50 (the source's name)
Cavia porcellus [12] = assay: The compound was evaluated for its effect on bronchoconstriction induced by histamine(10 ug/kg, i.v.) in the guinea pig 15 min after administration; type: functional
Cavia porcellus [13] = assay: The compound was evaluated for its effect on bronchoconstriction induced by [Sar9,Met(O2)11]-SP(5 ug/kg, i.v.) in the guinea pig 15 min after administration; type: functional
Cavia porcellus [14] = assay: The compound was evaluated for its effect on bronchoconstriction induced by serotonin(10 ug/kg, i.v.) in the guinea pig 15 min after administration; type: functional
Substance-K receptor [15] = target: T1, Substance-K receptor; assay: The compound was evaluated for the inhibition of [125I]NKA binding to Tachykinin receptor 2 from rat duodenum membranes; type: cell membranes, Membrane

Structure (SMILES)	Ki (Substance-K receptor [3]) [pM]	inhibition in vivo at 0.2 mg/kg (Cavia porcellus [1]) [%]	inhibition in vivo at 0.5 mg/kg (Cavia porcellus [2]) [%]	Kb (Oryctolagus cuniculus) [pM]	further results
CC(=O)OC1(c2ccccc2)CCN(CCC(CN(C)C(=O)c2ccccc2)c2ccc(Cl)c(Cl)c2)CC1 (stereo not drawn)	300	98	36	–	–
CCOC1(c2ccccc2)CCN(CCC(CN(C)C(=O)c2ccccc2)c2ccc(Cl)c(Cl)c2)CC1 (stereo not drawn)	900	40	–	170	–
CC(=O)NC1(c2ccccc2)CCN(CCC(CNC(=O)c2ccccc2)c2ccc(Cl)c(Cl)c2)CC1 (stereo not drawn)	> 100000	–	–	–	–
CC(=O)NCC1(c2ccccc2)CCN(CCC(CN(C)C(=O)c2ccccc2)c2ccc(Cl)c(Cl)c2)CC1 (stereo not drawn)	23000	–	–	–	–
CCN(CC(CCN1CCC(OC(C)=O)(c2ccccc2)CC1)c1ccc(Cl)c(Cl)c1)C(=O)c1cccs1 (stereo not drawn)	300	97	34	447	–
CN(CC(CCN1CCC(c2ccccc2)CC1)c1ccc(Cl)c(Cl)c1)C(=O)c1ccccc1 (stereo not drawn)	> 100000	–	–	–	–
CC(=O)NC1(c2ccccc2)CCN(CC[C@H](CN(C)C(=O)c2ccccc2)c2ccc(Cl)c(Cl)c2)CC1 [SAREDUTANT]	–	–	–	–	Ki (Substance-K receptor [15]): 945000 pM

More lines, main results first:

Ki (Substance-K receptor [3]) [pM]	Structure (SMILES)	inhibition in vivo at 0.2 mg/kg (Cavia porcellus [1]) [%]	inhibition in vivo at 0.5 mg/kg (Cavia porcellus [2]) [%]	Kb (Oryctolagus cuniculus) [pM]	further results
1400	CN(CC(CCN1CCC(O)(c2ccccc2)CC1)c1ccc(Cl)c(Cl)c1)C(=O)c1cccs1 (stereo not drawn)	93	73	67.6	–
1000	CN(CC(CCN1CCC(O)(c2ccccc2)CC1)c1ccc(Cl)c(Cl)c1)C(=O)c1ccsc1 (stereo not drawn)	77	–	229	–
1500	CN(CC(CCN1CCC(O)(c2ccccc2)CC1)c1ccc(Cl)c(Cl)c1)C(=O)c1cccc2ccccc12 (stereo not drawn)	0	–	2340	–
50000	CN(CC(CCN1CCC(CO)(c2ccccc2)CC1)c1ccc(Cl)c(Cl)c1)C(=O)c1ccccc1 (stereo not drawn)	–	–	–	–
1000	CN(CC(CCN1CCC(O)(c2ccccc2)CC1)c1ccc(Cl)c(Cl)c1)C(=O)c1ccccc1 (stereo not drawn)	93	–	182	–
500	CC(=O)NC1(c2ccccc2)CCN(CCC(CN(C)C(=O)c2ccccc2)c2ccc(Cl)c(Cl)c2)CC1 (single isomer, unassigned) [SAREDUTANT]	100	100	33.1	Volume of air (Cavia porcellus [4]): 3.9 mL; Volume of air (Cavia porcellus [5]): 3.2 mL; Volume of air (Cavia porcellus [6]): 2.8 mL; ED50 (Cavia porcellus [7]): 0.35 mg/kg; Ki (Substance-K receptor [8]): 1200 pM; Volume of air (Cavia porcellus [9]): 4.7 mL; Volume of air (Cavia porcellus [10]): 4.2 mL; ED50 (Cavia porcellus [11]): 0.037 mg/kg; Volume of air (Cavia porcellus [12]): 3.2 mL; Volume of air (Cavia porcellus [13]): 4.4 mL; Volume of air (Cavia porcellus [14]): 4.5 mL

Source: ChEMBL document CHEMBL1152006, “Pharmacological profile and chemical synthesis of SR 48968, a non-peptide antagonist of the neurokinin A (NK2) receptor” (Bioorg Med Chem Lett, 1993)
